Laboratory results reported in article PMC5065787 (Bioorganic & medicinal chemistry, 2016).
Positions count from the first letter of the chain named.

Experiments:
h15-LOX-1 Q547L = target: T1, h15-LOX-1 Q547L (Homo sapiens, UniProt P16050, Q547L); assay: Steady-state substrate kinetics, Q547L; type: biochemical; conditions: error in parentheses, no unit in table (sec^−1)
T1 sequence (P16050 1-662 Q547L): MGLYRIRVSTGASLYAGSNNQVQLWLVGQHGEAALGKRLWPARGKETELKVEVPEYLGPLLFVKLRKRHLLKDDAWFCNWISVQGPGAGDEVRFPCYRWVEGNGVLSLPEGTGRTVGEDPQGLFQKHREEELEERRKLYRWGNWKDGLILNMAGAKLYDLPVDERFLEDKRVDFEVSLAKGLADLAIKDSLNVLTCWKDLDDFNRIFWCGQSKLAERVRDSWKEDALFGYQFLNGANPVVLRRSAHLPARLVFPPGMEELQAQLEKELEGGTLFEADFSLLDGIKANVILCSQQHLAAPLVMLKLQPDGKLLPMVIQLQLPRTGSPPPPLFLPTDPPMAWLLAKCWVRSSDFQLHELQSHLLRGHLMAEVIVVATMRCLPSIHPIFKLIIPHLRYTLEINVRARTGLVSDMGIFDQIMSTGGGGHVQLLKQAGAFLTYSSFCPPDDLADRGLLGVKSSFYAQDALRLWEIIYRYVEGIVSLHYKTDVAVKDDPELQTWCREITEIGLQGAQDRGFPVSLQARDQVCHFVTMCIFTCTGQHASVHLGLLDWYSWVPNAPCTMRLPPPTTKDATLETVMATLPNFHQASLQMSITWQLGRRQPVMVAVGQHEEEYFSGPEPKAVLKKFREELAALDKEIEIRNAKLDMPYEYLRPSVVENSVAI

h15-LOX-1 F414W = target: T2, h15-LOX-1 F414W (Homo sapiens, UniProt P16050, F414W); assay: Steady-state substrate kinetics, F414W; type: biochemical; conditions: error in parentheses, no unit in table (sec^−1)
T2 sequence (P16050 1-662 F414W): T1 sequence (P16050 1-662 Q547L) with F414W, L547Q

kcat (h15-LOX-1 Q547L): 2.9 (0.1)
kcat (h15-LOX-1 F414W): 2.8 (0.08)
Structure (SMILES): CCCCC/C=C\C/C=C\C/C=C\C/C=C\CCCC(=O)O [AA, arachidonic acid]
